Measurements published in publication PMC6044933 (ACS Omega, 2017).
Where a name gives a salt, the structure may show the parent alone. Read-outs that look alike come from different tables or passages of the source.

What was measured:
Test in all cases: cells
[1] = test system: BE2-C; settings: Homo sapiens, BE(2)-C, 72 h
[2] = test system: U87; settings: Homo sapiens, U-87 MG, 72 h
[3] = test system: MCF-7; settings: Homo sapiens, MCF7, 72 h
[4] = test system: A431; settings: Homo sapiens, A-431, 72 h
[5] = test system: Du145; settings: Homo sapiens, DU-145, 72 h
[6] = test system: MCF10A; settings: Homo sapiens, MCF-10A, 72 h
[7] = test system: A2780; settings: Homo sapiens, A2780, 72 h
[8] = test system: SJ-G2; settings: SJ-G2, 72 h
[9] = test system: SMA; settings: SMA, 72 h
[10] = test system: H460; settings: Homo sapiens, NCI-H460, 72 h
[11] = test system: MIA; settings: 72 h
[12] = test system: HT29; settings: Homo sapiens, HT-29, 72 h

## CCNC(=O)Nc1ccc(OC/C=C\COc2ccc(NC(=O)NCC)cc2)cc1 [10e, (Z)-1,1′-((But-2-ene-1,4-diylbis(oxy))bis(4,1-phenylene))bis(3-ethylurea)]
[1]; read-out: 10e
  GI50: > 50 µM
[2]; read-out: 10e
  GI50: > 50 µM
[3]; read-out: 10e
  GI50: > 50 µM
[4]; read-out: 10e
  GI50: > 50 µM
[5]; read-out: 10e
  GI50: > 50 µM
[6]; read-out: 10e
  GI50: > 50 µM
[7]; read-out: 10e
  GI50: > 50 µM
[8]; read-out: 10e
  GI50: > 50 µM
[9]; read-out: 10e
  GI50: > 50 µM
[10]; read-out: 10e
  GI50: > 50 µM
[11]; read-out: 10e
  GI50: > 50 µM
[12]; read-out: 10e
  GI50: > 50 µM

## CCNC(=O)Nc1ccc(OCCCOc2ccc(NC(=O)NCC)cc2)cc1 [10a, N,N′-[1,3-Propanediylbis(oxy-4,1-phenylene)]bis(N-ethyl)urea]
[1]; read-out: 10a
  GI50: > 50 µM
[2]; read-out: 10a
  GI50: > 50 µM
[3]; read-out: 10a
  GI50: > 50 µM
[4]; read-out: 10a
  GI50: > 50 µM
[5]; read-out: 10a
  GI50: > 50 µM
[6]; read-out: 10a
  GI50: > 50 µM
[7]; read-out: 10a
  GI50: > 50 µM
[8]; read-out: 10a
  GI50: > 50 µM
[9]; read-out: 10a
  GI50: > 50 µM
[10]; read-out: 10a
  GI50: > 50 µM
[11]; read-out: 10a
  GI50: > 50 µM
[12]; read-out: 10a
  GI50: > 50 µM

## CCNC(=O)Nc1ccc(OC/C=C\COc2ccc(CCN)cc2)cc1 [13i, (Z)-2-(4-((4-(4-(3-Ethylureido)phenoxy)but-2-en-1-yl)oxy)phenyl)ethan-1-aminium]
[1]; read-out: 13i
  GI50: 18 ± 3.2 µM
[2]; read-out: 13i
  GI50: 29 ± 1.4 µM
[3]; read-out: 13i
  GI50: 17 ± 0.82 µM
[4]; read-out: 13i
  GI50: 17 ± 0.75 µM
[5]; read-out: 13i
  GI50: 13 ± 0.41 µM
[6]; read-out: 13i
  GI50: 19 ± 0.5 µM
[7]; read-out: 13i
  GI50: 18 ± 0.91 µM
[8]; read-out: 13i
  GI50: 24 ± 2.6 µM
[9]; read-out: 13i
  GI50: 28 ± 4.4 µM
[10]; read-out: 13i
  GI50: 21 ± 2.1 µM
[11]; read-out: 13i
  GI50: 28 ± 0.82 µM
[12]; read-out: 13i
  GI50: 15 µM

## O=C(O)c1ccc(OC/C=C\COc2ccc(C(=O)O)cc2)cc1 [compound 18, (Z)-4,4′-(But-2-ene-1,4-diylbis(oxy))dibenzoic Acid]
[1]; read-out: 18
  GI50: > 50 µM
[2]; read-out: 18
  GI50: > 50 µM
[3]; read-out: 18
  GI50: > 50 µM
[4]; read-out: 18
  GI50: > 50 µM
[5]; read-out: 18
  GI50: > 50 µM
[6]; read-out: 18
  GI50: > 50 µM
[7]; read-out: 18
  GI50: > 50 µM
[8]; read-out: 18
  GI50: > 50 µM
[9]; read-out: 18
  GI50: > 50 µM
[10]; read-out: 18
  GI50: > 50 µM
[11]; read-out: 18
  GI50: > 50 µM
[12]; read-out: 18
  GI50: > 50 µM

## CCNC(=O)Nc1ccc(OCCCCOc2ccc(NC(=O)NCC)cc2)cc1 [compound 1]
[1]; read-out: 1
  GI50: > 50 µM
[2]; read-out: 1
  GI50: > 50 µM
[3]; read-out: 1
  GI50: > 50 µM
[4]; read-out: 1
  GI50: > 50 µM
[5]; read-out: 1
  GI50: > 50 µM
[6]; read-out: 1
  GI50: > 50 µM
[7]; read-out: 1
  GI50: > 50 µM
[8]; read-out: 1
  GI50: > 50 µM
[9]; read-out: 1
  GI50: > 50 µM
[10]; read-out: 1
  GI50: > 50 µM
[11]; read-out: 1
  GI50: > 50 µM
[12]; read-out: 1
  GI50: > 50 µM

## CCNC(=O)Nc1ccc(OCCCCCOc2ccc(NC(=O)NCC)cc2)cc1 [10b, N,N′-[1,5-Pentanediylbis(oxy-4,1-phenylene)]bis(N-ethyl)urea]
[1]; read-out: 10b
  GI50: > 50 µM
[2]; read-out: 10b
  GI50: > 50 µM
[3]; read-out: 10b
  GI50: > 50 µM
[4]; read-out: 10b
  GI50: > 50 µM
[5]; read-out: 10b
  GI50: > 50 µM
[6]; read-out: 10b
  GI50: > 50 µM
[7]; read-out: 10b
  GI50: > 50 µM
[8]; read-out: 10b
  GI50: > 50 µM
[9]; read-out: 10b
  GI50: > 50 µM
[10]; read-out: 10b
  GI50: > 50 µM
[11]; read-out: 10b
  GI50: > 50 µM
[12]; read-out: 10b
  GI50: > 50 µM

## N=C(N)NN=Cc1ccc(OC/C=C\COc2ccc(C=NNC(=N)N)cc2)cc1 [compound 22]
[1]; read-out: 22
  GI50: 2.3 ± 0.13 µM
[2]; read-out: 22
  GI50: 2 ± 0.1 µM
[3]; read-out: 22
  GI50: 2.3 ± 0.1 µM
[4]; read-out: 22
  GI50: 2.2 ± 0.11 µM
[5]; read-out: 22
  GI50: 1.7 ± 0.12 µM
[6]; read-out: 22
  GI50: 2.8 ± 0.15 µM
[7]; read-out: 22
  GI50: 2.4 ± 0.14 µM
[8]; read-out: 22
  GI50: 1.8 ± 0.048 µM
[9]; read-out: 22
  GI50: 2.9 µM
[10]; read-out: 22
  GI50: 2.2 ± 0.065 µM
[11]; read-out: 22
  GI50: 2.4 ± 0.14 µM
[12]; read-out: 22
  GI50: 2.1 ± 0.05 µM

## Nc1ccc(OC/C=C\COc2ccc(N)cc2)cc1 [8e, (Z)-4,4′-(But-2-ene-1,4-diylbis(oxy))dianiline hydrochloride]
[1]; read-out: 8e
  GI50: > 50 µM
[2]; read-out: 8e
  GI50: > 50 µM
[3]; read-out: 8e
  GI50: > 50 µM
[4]; read-out: 8e
  GI50: > 50 µM
[5]; read-out: 8e
  GI50: > 50 µM
[6]; read-out: 8e
  GI50: > 50 µM
[7]; read-out: 8e
  GI50: > 50 µM
[8]; read-out: 8e
  GI50: > 50 µM
[9]; read-out: 8e
  GI50: > 50 µM
[10]; read-out: 8e
  GI50: > 50 µM
[11]; read-out: 8e
  GI50: > 50 µM
[12]; read-out: 8e
  GI50: > 50 µM
